Experimental data taken from ChEMBL document CHEMBL1201862, “PubChem BioAssay data set” (2004).
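Each compound was tested at five concentrations against cells in 96-well plates for 48 hours. GI50: concentration for 50% inhibition of growth.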 Active and inactive are the calls of the source. No stated cut-off is given here; in the data, active = GI50 up to about 1.1 µM and inactive = higher.

How the values were obtained:
Experiment in all cases: DTP human tumour cell line panel, 48 h
HCT-116 = system: HCT-116
MCF7 = system: MCF7
A549 = system: A549
CAKI-1 = system: CAKI-1
HOP-92 = system: HOP-92
PC-3 = system: PC-3
SF-295 = system: SF-295
NCI-H522 = system: NCI-H522
UO-31 = system: UO-31
HCT-15 = system: HCT-15
SK-MEL-2 = system: SK-MEL-2
SW-620 = system: SW-620
SR = system: SR
HCC 2998 = system: HCC 2998
NCI-H460 = system: NCI-H460
SK-MEL-28 = system: SK-MEL-28
NCI-H23 = system: NCI-H23
SF-539 = system: SF-539
BT-549 = system: BT-549

| SMILES | GI50 (HCT-116) | GI50 (MCF7) | GI50 (A549) | GI50 (CAKI-1) | GI50 (HOP-92) | GI50 (PC-3) | GI50 (SF-295) | GI50 (NCI-H522) | GI50 (UO-31) | GI50 (HCT-15) [µM] | GI50 (SK-MEL-2) | GI50 (SW-620) | GI50 (SR) | GI50 (HCC 2998) | GI50 (NCI-H460) | GI50 (SK-MEL-28) | GI50 (NCI-H23) | GI50 (SF-539) | GI50 (BT-549) |
| --- | --- | --- | --- | --- | --- | --- | --- | --- | --- | --- | --- | --- | --- | --- | --- | --- | --- | --- | --- |
| NC(=O)c1nnsc1NC=O | > 100 µM (inactive) | > 100 µM (inactive) | > 100 µM (inactive) | > 100 µM (inactive) | 75 µM (inactive) | > 100 µM (inactive) | > 100 µM (inactive) | > 100 µM (inactive) | > 100 µM (inactive) | > 100 | > 100 µM (inactive) | > 100 µM (inactive) | > 100 µM (inactive) | > 100 µM (inactive) | > 100 µM (inactive) | > 100 µM (inactive) | > 100 µM (inactive) |  |  |
| CC1(C)N[PH]2(Nc3ccccc3O2)OC1=O | > 100 µM (inactive) | 22.8 µM (inactive) | 32.7 µM (inactive) | 66.2 µM (inactive) |  | 41.1 µM (inactive) | 24.7 µM (inactive) |  | 96.4 µM (inactive) | 64.9 |  | 42.7 µM (inactive) |  | > 100 µM (inactive) | 45.4 µM (inactive) | 86.9 µM (inactive) | 67.9 µM (inactive) | 66.5 µM (inactive) | 18.6 µM (inactive) |
| CCOC(=O)/C(=C\NC(=S)Nc1ccc(OCC)cc1)C(=O)c1ccccc1 | > 100 µM (inactive) | > 100 µM (inactive) | > 100 µM (inactive) | > 100 µM (inactive) | 8.26 µM (inactive) | > 100 µM (inactive) | > 100 µM (inactive) | > 100 µM (inactive) |  | > 100 | > 100 µM (inactive) | > 100 µM (inactive) | > 100 µM (inactive) | > 100 µM (inactive) | > 100 µM (inactive) | > 100 µM (inactive) | > 100 µM (inactive) | > 100 µM (inactive) |  |
| C=C(C)C#CC(O)(C(=O)OC1CCN(C)CC1)C(C)C (configuration not stated) | > 100 µM (inactive) | > 100 µM (inactive) | > 100 µM (inactive) | > 100 µM (inactive) |  | > 100 µM (inactive) | > 100 µM (inactive) | > 100 µM (inactive) | > 100 µM (inactive) | > 100 |  | > 100 µM (inactive) | > 100 µM (inactive) | > 100 µM (inactive) |  | > 100 µM (inactive) | > 100 µM (inactive) | > 100 µM (inactive) |  |
| O=C(/C=C/c1ccc2ccccc2c1)NCc1ccc(C(=O)NCCc2ccccc2)cc1 | > 100 µM (inactive) | > 100 µM (inactive) | > 100 µM (inactive) | > 100 µM (inactive) | > 100 µM (inactive) | > 100 µM (inactive) | > 100 µM (inactive) |  | > 100 µM (inactive) | > 100 | > 100 µM (inactive) | > 100 µM (inactive) | > 100 µM (inactive) | > 100 µM (inactive) | > 100 µM (inactive) | > 100 µM (inactive) | > 100 µM (inactive) |  |  |
| Cc1c(C(=O)CC(=O)C(=O)Nc2cccc(C(F)(F)F)c2)[n+]([O-])c2ccccc2[n+]1[O-] | 3.06 µM (inactive) |  | 14.4 µM (inactive) | 6.47 µM (inactive) | 14.3 µM (inactive) |  | 10.6 µM (inactive) | 2.31 µM (inactive) | 16.3 µM (inactive) | 3.31 | 4.28 µM (inactive) | 3.54 µM (inactive) | 2.33 µM (inactive) | 4.72 µM (inactive) | 2.97 µM (inactive) | 7.35 µM (inactive) | 7.36 µM (inactive) | 3.13 µM (inactive) |  |
| C/C(=C\COP(=O)(O)CP(=O)(O)O)CC/C=C(\C)CNc1ccccc1 | > 100 µM (inactive) | > 100 µM (inactive) | > 100 µM (inactive) | > 100 µM (inactive) |  | > 100 µM (inactive) | > 100 µM (inactive) | > 100 µM (inactive) | > 100 µM (inactive) | > 100 | > 100 µM (inactive) | > 100 µM (inactive) |  |  | > 100 µM (inactive) | > 100 µM (inactive) | 6.28 µM (inactive) | > 100 µM (inactive) | 14.6 µM (inactive) |
